# According to PubChem BioAssay (NCI):
#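 Test compounds were applied to cells in 96-well plates for 48 hours at 5 doses. At the TGI there is no net growth.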
# What was measured:
# Assay in all cases: growth of human tumour cells (NCI), 48 h
# [1] = tested on: T-47D breast
# [2] = tested on: UACC-62 melanoma
# [3] = tested on: HCT-15 colon
# [4] = tested on: SNB-19 CNS
# [5] = tested on: IGROV1 ovarian
# [6] = tested on: MDA-MB-435
# [7] = tested on: SW-620 colon
# [8] = tested on: SN12C renal
# [9] = tested on: COLO 205 colon
# [10] = tested on: SF-295 CNS
# [11] = tested on: 786-0 renal
# [12] = tested on: LOX IMVI melanoma
# [13] = tested on: TK-10 renal
# [14] = tested on: DU-145 prostate
# [15] = tested on: SK-MEL-2 melanoma
# [16] = tested on: MCF7 breast
# [17] = tested on: SK-MEL-5 melanoma
# [18] = tested on: OVCAR-5 ovarian
# [19] = tested on: OVCAR-8 ovarian
# [20] = tested on: UO-31 renal
# [21] = tested on: NCI-H226 lung
# [22] = tested on: UACC-257 melanoma
# [23] = tested on: ACHN renal
# [24] = tested on: MDA-MB-231 breast
# [25] = tested on: NCI-H522 lung
# [26] = tested on: HCC-2998 colon
# [27] = tested on: K-562 leukemia
# [28] = tested on: HS 578T breast
# [29] = tested on: HOP-62 NSCLC
# [30] = tested on: KM12 colon
# [31] = tested on: U251 CNS
# [32] = tested on: MOLT-4 leukemia
# [33] = tested on: HCT-116 colon
# [34] = tested on: SK-MEL-28 melanoma
# [35] = tested on: OVCAR-3 ovarian
# [36] = tested on: M14 melanoma
# [37] = tested on: NCI/ADR-RES ovarian
# [38] = tested on: MDA-N
# [39] = tested on: A549 NSCLC
# [40] = tested on: SR leukemia
# [41] = tested on: PC-3 prostate
# [42] = tested on: CCRF-CEM leukemia
# [43] = tested on: HL-60(TB) leukemia
# [44] = tested on: OVCAR-4 ovarian
# [45] = tested on: CAKI-1 renal
# [46] = tested on: HT29 colon
# [47] = tested on: NCI-H23 lung
# [48] = tested on: RXF 393 renal
# [49] = tested on: EKVX NSCLC
# [50] = tested on: RPMI-8226 leukemia
# [51] = tested on: SF-268 CNS
# [52] = tested on: MALME-3M melanoma
# [53] = tested on: SK-OV-3 ovarian
# [54] = tested on: BT-549 breast
# [55] = tested on: SNB-75 CNS
smiles,measurement,setting,value
c1ccc(-c2cc(-c3ccncc3)cc(-c3ccncc3)n2)cc1,TGI,[1],> 100 µM
same,TGI,[2],> 100 µM
same,TGI,[3],> 100 µM
same,TGI,[4],> 100 µM
same,TGI,[5],> 100 µM
same,TGI,[6],> 100 µM
same,TGI,[7],> 100 µM
same,TGI,[8],> 100 µM
same,TGI,[9],> 100 µM
same,TGI,[10],> 100 µM
same,TGI,[11],> 100 µM
same,TGI,[12],> 100 µM
same,TGI,[13],> 100 µM
same,TGI,[14],> 100 µM
same,TGI,[15],> 100 µM
same,TGI,[16],> 100 µM
same,TGI,[17],> 100 µM
same,TGI,[18],> 100 µM
same,TGI,[19],> 100 µM
same,TGI,[20],> 100 µM
same,TGI,[21],> 100 µM
same,TGI,[22],> 100 µM
same,TGI,[23],> 100 µM
same,TGI,[24],> 100 µM
same,TGI,[25],> 100 µM
same,TGI,[26],> 100 µM
same,TGI,[27],> 100 µM
same,TGI,[28],> 100 µM
same,TGI,[29],> 100 µM
same,TGI,[30],> 100 µM
same,TGI,[31],> 100 µM
same,TGI,[32],> 100 µM
same,TGI,[33],> 100 µM
same,TGI,[34],> 100 µM
same,TGI,[35],> 100 µM
same,TGI,[36],> 100 µM
same,TGI,[37],> 100 µM
same,TGI,[38],> 100 µM
same,TGI,[39],> 100 µM
same,TGI,[40],> 100 µM
same,TGI,[41],> 100 µM
same,TGI,[42],> 100 µM
same,TGI,[43],> 100 µM
same,TGI,[44],> 100 µM
same,TGI,[45],> 100 µM
same,TGI,[46],> 100 µM
same,TGI,[47],> 100 µM
same,TGI,[48],> 100 µM
same,TGI,[49],> 100 µM
same,TGI,[50],> 100 µM
same,TGI,[51],> 100 µM
same,TGI,[52],> 100 µM
same,TGI,[53],> 100 µM
same,TGI,[54],> 100 µM
same,TGI,[55],99.1 µM
